Legend:
Butyrylcholinesterase = Butyrylcholinesterase (Homo sapiens, UniProt P06276); type: biochemical
Urease = Urease (Canavalia ensiformis, UniProt P07374); type: biochemical
Sequence of Urease (P07374 whole entry, looked up): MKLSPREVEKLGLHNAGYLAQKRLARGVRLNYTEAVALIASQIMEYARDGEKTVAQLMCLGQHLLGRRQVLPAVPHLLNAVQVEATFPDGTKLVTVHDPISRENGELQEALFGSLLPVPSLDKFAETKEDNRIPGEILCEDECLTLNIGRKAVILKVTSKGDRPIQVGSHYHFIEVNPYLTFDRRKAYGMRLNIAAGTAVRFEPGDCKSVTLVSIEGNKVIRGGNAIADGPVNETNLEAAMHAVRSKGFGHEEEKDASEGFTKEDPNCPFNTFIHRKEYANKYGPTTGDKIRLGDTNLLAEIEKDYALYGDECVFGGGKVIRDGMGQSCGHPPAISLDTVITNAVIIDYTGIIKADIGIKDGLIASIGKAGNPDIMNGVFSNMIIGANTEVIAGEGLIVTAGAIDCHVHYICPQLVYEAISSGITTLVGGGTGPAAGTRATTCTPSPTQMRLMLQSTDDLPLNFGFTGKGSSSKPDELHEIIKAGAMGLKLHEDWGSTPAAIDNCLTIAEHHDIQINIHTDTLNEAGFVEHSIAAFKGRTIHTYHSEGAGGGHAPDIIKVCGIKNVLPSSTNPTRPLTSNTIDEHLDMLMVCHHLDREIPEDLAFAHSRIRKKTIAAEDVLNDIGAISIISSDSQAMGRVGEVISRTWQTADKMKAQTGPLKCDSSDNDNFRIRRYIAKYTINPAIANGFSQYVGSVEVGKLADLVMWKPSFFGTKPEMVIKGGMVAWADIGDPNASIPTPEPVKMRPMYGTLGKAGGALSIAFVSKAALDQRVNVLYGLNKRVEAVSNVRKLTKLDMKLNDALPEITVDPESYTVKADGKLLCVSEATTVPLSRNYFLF

Sequence of Butyrylcholinesterase (P06276 29-602): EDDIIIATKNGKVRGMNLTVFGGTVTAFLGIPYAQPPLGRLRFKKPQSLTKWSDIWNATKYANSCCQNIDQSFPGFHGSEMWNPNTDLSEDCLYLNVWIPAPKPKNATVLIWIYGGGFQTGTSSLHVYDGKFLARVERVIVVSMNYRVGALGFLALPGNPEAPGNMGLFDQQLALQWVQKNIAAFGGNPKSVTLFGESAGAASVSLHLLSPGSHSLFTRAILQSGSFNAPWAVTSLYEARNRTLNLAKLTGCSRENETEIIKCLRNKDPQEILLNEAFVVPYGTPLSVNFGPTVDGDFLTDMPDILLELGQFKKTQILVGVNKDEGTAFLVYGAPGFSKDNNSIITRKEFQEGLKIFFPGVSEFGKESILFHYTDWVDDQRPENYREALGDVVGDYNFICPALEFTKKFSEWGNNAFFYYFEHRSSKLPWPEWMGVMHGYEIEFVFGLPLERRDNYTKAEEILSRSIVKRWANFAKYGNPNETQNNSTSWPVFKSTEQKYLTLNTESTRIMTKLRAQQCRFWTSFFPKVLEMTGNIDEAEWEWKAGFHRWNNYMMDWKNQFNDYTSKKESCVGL

| SMILES | Inhibition of BChE polymer used to wipe paraoxon-containing beakers (Butyrylcholinesterase) | Color change of urease/m-cresol purple polymer disks (Urease) |
| --- | --- | --- |
| CCOP(=O)(OCC)Oc1ccc([N+](=O)[O-])cc1 [paraoxon, Paraoxon] | complete inhibition |  |
| NC(N)=O [urea] |  | transition from yellow to blue |
